Measurements reported in patent US9630922B2, “3-spiro-7-hydroxamic acid tetralins as HDAC inhibitors” (Forma Therapeutics, Inc., priority 2015, dated 2017).

Target: T1, HDAC6 (Homo sapiens, UniProt Q9UBN7)
T1 construct: Full length human recombinant HDAC6 protein was expressed in baculoviral system; made in house; host or cells: baculoviral system
T1 sequence (Q9UBN7 1-1215): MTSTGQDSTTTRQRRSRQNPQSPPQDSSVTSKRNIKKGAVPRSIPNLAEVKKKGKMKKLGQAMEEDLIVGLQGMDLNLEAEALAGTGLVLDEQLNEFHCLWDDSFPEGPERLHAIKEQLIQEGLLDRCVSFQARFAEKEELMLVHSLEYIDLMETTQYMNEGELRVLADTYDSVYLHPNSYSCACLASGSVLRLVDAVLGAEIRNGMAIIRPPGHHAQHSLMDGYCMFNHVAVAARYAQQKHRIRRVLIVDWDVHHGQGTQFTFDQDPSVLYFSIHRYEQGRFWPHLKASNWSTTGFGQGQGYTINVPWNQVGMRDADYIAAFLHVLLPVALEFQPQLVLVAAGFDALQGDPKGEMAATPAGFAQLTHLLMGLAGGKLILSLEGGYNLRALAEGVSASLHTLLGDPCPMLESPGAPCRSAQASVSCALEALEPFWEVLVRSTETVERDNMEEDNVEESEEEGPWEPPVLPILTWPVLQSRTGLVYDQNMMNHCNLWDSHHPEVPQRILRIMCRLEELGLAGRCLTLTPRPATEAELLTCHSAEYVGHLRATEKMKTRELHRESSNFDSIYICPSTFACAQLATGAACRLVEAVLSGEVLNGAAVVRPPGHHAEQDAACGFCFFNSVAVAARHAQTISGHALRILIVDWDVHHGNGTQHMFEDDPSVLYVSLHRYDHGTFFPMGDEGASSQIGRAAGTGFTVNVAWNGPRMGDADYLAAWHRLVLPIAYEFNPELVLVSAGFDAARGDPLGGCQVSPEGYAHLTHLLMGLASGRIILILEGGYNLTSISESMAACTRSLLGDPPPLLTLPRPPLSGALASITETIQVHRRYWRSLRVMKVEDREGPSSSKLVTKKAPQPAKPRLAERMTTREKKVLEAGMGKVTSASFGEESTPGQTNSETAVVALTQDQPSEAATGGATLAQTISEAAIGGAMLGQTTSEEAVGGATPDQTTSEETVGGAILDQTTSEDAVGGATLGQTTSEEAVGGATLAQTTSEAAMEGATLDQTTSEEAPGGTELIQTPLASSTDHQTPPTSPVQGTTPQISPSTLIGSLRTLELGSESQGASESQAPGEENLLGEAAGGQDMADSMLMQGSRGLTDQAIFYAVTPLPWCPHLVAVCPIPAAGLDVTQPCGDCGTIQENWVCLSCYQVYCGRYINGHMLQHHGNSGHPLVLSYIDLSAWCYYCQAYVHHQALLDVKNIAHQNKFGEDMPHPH
Experiment: In vitro Histone Deacetylase Assay (enzymatic HDAC6 electrophoretic mobility shift assay)
Format: biochemical
Conditions: full length human recombinant HDAC6, 1 nM enzyme, 2 μM peptide substrate RHKK(Ac)-NH2, 25° C.; read-out: HDAC6 activity range
Method in brief: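 Full-length recombinant human HDAC6 (baculovirus-expressed, 1 nM) was incubated at 25 °C with 2 μM fluorescent RHKK(Ac)-NH2 peptide in HEPES pH 7.5, KCl, BSA, Triton X-100 and 1% DMSO, then SDS-quenched. Substrate and product were separated by microfluidic mobility shift, and IC50 came from 4-parameter fits of 12-point, 3-fold dilution curves.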

| IC50 | Compound |
| --- | --- |
| ≤ 0.1 µM | O=C(NO)c1ccc2c(c1)CC[C@]1(CCN(c3cccc4c3OCC4)C1=O)C2 [Compound I-96, (R)-1′-(2,3-dihydrobenzofuran-7-yl)-N-hydroxy-2′-oxo-3,4-dihydro-1H-spiro[naphthalene-2,3′-pyrrolidine]-6-carboxamide] |
| ≤ 0.1 µM | CN1CC2(CCc3cc(C(=O)NO)ccc3C2)CC1=O (single isomer, unassigned) [Compound I-202] |
| ≤ 0.1 µM | O=C(NO)c1ccc2c(c1)CC[C@@]1(CCCN(c3ccccc3)C1=O)C2 (single isomer, unassigned) [Compound I-181] |
| ≤ 0.1 µM | O=C(NO)c1ccc2c(c1)CC[C@]1(CCN(c3ccc(F)c(F)c3)C1=O)C2 [Compound I-119, (R)-1′-(3,4-difluorophenyl)-N-hydroxy-2′-oxo-3,4-dihydro-1H-spiro[naphthalene-2,3′-pyrrolidine]-6-carboxamide] |
| 0.1 to 0.5 µM | CN(C)CCCN1CCC2(CCc3cc(C(=O)NO)ccc3C2)C1=O (stereo not shown) [Compound I-9, 1′-(3-(dimethylamino)propyl)-N-hydroxy-2′-oxo-3,4-dihydro-1H-spiro[naphthalene-2,3′-pyrrolidine]-6-carboxamide] |
| ≤ 0.1 µM | O=C(NO)c1ccc2c(c1)CC[C@@]1(CCN(c3cc(F)ccc3F)C1=O)C2 [Compound I-169, (S)-1′-(2,5-difluorophenyl)-N-hydroxy-2′-oxo-3,4-dihydro-1H-spiro[naphthalene-2,3′-pyrrolidine]-6-carboxamide] |
| 0.1 to 0.5 µM | O=C(NO)c1ccc2c(c1)CCC1(CCN(Cc3ccccc3)C1=O)S2(=O)=O (stereo not shown) [Compound I-239, 1-benzyl-N-hydroxy-2-oxospiro[pyrrolidine-3,2′-thiochromane]-6′-carboxamide 1′,1′-dioxide] |
